According to patent publication US10344060B2 (priority 2013, dated 2019):
Read-outs that look alike come from different tables or passages of the source.

Molecular target: hNav1.7 (Homo sapiens, UniProt Q15858)
Assay: cell-based
Type: cell-based
Conditions: for Wash out: PatchXpress Nav1.7, whether block washes out (Yes/No); for Nav1.4/Nav1.7 / Nav1.5/Nav1.7: ratio of PX tonic IC50 values

Chain of hNav1.7 (Q15858 whole entry): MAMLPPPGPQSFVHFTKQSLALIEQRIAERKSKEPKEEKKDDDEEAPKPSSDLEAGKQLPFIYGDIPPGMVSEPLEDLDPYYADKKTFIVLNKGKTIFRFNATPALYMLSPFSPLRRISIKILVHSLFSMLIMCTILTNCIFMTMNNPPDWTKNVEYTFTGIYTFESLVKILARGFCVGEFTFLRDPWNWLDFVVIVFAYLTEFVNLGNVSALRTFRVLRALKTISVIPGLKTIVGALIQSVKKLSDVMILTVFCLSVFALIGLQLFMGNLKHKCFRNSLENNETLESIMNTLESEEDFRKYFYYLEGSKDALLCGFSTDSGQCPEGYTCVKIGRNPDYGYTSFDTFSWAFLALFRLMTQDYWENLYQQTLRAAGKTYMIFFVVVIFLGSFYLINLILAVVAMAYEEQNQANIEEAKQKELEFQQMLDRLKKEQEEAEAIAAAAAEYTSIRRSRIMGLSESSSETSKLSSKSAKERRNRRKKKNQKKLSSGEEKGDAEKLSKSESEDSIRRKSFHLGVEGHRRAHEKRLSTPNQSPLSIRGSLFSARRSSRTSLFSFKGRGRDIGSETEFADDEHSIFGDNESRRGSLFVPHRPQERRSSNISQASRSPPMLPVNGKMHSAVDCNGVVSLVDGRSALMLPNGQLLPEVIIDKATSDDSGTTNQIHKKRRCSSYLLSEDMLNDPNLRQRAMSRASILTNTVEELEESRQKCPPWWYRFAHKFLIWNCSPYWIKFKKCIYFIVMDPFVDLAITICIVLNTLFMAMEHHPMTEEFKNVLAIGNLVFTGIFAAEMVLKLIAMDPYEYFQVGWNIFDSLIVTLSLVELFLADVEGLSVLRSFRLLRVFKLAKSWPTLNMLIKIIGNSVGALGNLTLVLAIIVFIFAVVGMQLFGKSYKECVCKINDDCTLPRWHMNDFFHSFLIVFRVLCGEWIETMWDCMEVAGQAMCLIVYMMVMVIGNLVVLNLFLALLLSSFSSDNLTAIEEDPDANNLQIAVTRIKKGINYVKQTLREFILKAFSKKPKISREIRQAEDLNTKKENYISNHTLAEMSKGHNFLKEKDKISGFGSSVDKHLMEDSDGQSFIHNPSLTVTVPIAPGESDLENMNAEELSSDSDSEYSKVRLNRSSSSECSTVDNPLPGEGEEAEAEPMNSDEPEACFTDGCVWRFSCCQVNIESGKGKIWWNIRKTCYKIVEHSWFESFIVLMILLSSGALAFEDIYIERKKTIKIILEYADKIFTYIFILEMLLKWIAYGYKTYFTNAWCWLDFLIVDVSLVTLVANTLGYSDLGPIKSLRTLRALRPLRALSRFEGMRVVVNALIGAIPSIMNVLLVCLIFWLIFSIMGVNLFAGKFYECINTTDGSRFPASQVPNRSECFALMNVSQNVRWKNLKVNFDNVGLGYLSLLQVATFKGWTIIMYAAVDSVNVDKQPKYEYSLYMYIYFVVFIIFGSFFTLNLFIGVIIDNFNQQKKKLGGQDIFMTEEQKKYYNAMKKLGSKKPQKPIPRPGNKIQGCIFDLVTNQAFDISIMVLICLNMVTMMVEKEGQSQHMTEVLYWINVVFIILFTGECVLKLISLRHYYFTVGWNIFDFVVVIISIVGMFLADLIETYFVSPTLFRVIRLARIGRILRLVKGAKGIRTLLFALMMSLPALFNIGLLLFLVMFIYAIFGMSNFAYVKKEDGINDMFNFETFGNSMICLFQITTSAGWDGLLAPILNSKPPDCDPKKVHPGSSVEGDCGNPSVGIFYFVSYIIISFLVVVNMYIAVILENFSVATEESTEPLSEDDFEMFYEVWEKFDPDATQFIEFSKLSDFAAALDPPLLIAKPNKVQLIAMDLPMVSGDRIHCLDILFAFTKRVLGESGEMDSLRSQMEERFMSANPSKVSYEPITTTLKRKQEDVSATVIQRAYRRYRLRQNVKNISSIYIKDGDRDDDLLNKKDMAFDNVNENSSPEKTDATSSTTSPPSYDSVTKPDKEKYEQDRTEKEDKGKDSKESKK

SMILES | Wash out | IC50 (read-out: Nav1.7 PX IC50) | IC50 (PatchXpress, tonic, Table 11, read-out: PX hNav1.7 Tonic IC50) | Nav1.4/Nav1.7 (Table 11) | Nav1.5/Nav1.7 (Table 11)
CCCC[C@@H]1NC(=O)[C@H](Cc2c[nH]c3ccccc23)NC(=O)[C@H](CCCCN)NC(=O)[C@H](CCC(N)=O)NC(=O)[C@@H](NC(=O)[C@H](Cc2ccc(O)cc2)NC(=O)[C@@H](N)Cc2cn(CCOCCOCCOCCOCCOCCOCCOCCOCCOCCOCCOCCOCCOCCOCCOCCOCCOCCOCCOCCOCCOCCOCCOCCNC(=O)c3cc(CNC(=O)CSCc4ccccc4)cc(C(=O)NCCOCCOCCOCCOCCOCCOCCOCCOCCOCCOCCOCCOCCOCCOCCOCCOCCOCCOCCOCCOCCOCCOCCOCCn4cc(C[C@H](N)C(=O)N[C@@H](Cc5ccc(O)cc5)C(=O)N[C@H]5CSSC[C@@H]6NC(=O)[C@@H]7CSSC[C@@H](C(=O)N[C@@H](CCCNC(=N)N)C(=O)N[C@@H](CCCCN)C(=O)N[C@H](C(=O)N[C@H](C(N)=O)[C@@H](C)CC)[C@@H](C)CC)NC(=O)[C@H](Cc8c[nH]c9ccccc89)NC(=O)[C@H](CC(C)C)NC(=O)[C@H](CCCCN)NC(=O)[C@H](CSSC[C@H](NC(=O)[C@H]([C@@H](C)O)NC(=O)[C@H](Cc8c[nH]c9ccccc89)NC(=O)[C@H](CCCC)NC(=O)[C@H](Cc8c[nH]c9ccccc89)NC(=O)[C@H](CCCCN)NC(=O)[C@H](CCC(N)=O)NC5=O)C(=O)N[C@@H](CC(=O)O)C(=O)N[C@@H](CO)C(=O)N[C@@H](CCCCN)C(=O)N[C@@H](CCCNC(=N)N)C(=O)N[C@@H](C)C(=O)N7)NC(=O)[C@H](CCCNC(=N)N)NC(=O)[C@H](CC(C)C)NC(=O)CNC(=O)[C@H](CCC(=O)O)NC6=O)nn4)c3)nn2)CSSC[C@@H]2NC(=O)[C@@H]3CSSC[C@@H](C(=O)N[C@@H](CCCNC(=N)N)C(=O)N[C@@H](CCCCN)C(=O)N[C@H](C(=O)N[C@H](C(N)=O)[C@@H](C)CC)[C@@H](C)CC)NC(=O)[C@H](Cc4c[nH]c5ccccc45)NC(=O)[C@H](CC(C)C)NC(=O)[C@H](CCCCN)NC(=O)[C@H](CSSC[C@H](NC(=O)[C@H]([C@@H](C)O)NC(=O)[C@H](Cc4c[nH]c5ccccc45)NC1=O)C(=O)N[C@@H](CC(=O)O)C(=O)N[C@@H](CO)C(=O)N[C@@H](CCCCN)C(=O)N[C@@H](CCCNC(=N)N)C(=O)N[C@@H](C)C(=O)N3)NC(=O)[C@H](CCCNC(=N)N)NC(=O)[C@H](CC(C)C)NC(=O)CNC(=O)[C@H](CCC(=O)O)NC2=O [Homodimeric Peptide No. 2] | No | 0.241 nM |  |  | 
CCCC[C@@H]1NC(=O)[C@H](Cc2c[nH]c3ccccc23)NC(=O)[C@H](CCCCN)NC(=O)[C@H](CCC(N)=O)NC(=O)[C@@H](NC(=O)[C@H](Cc2ccc(O)cc2)NC(=O)[C@@H](N)Cc2cn(CCOCCOCCOCCOCCOCCOCCOCCOCCOCCOCCOCCOCCOCCOCCOCCOCCOCCOCCOCCOCCOCCOCCOCCNC(=O)c3cc(CN)cc(C(=O)NCCOCCOCCOCCOCCOCCOCCOCCOCCOCCOCCOCCOCCOCCOCCOCCOCCOCCOCCOCCOCCOCCOCCOCCn4cc(C[C@H](N)C(=O)N[C@@H](Cc5ccc(O)cc5)C(=O)N[C@H]5CSSC[C@@H]6NC(=O)[C@@H]7CSSC[C@@H](C(=O)N[C@@H](CCCNC(=N)N)C(=O)N[C@@H](CCCCN)C(=O)N[C@@H](CCC(=O)O)C(=O)N[C@H](C(N)=O)[C@@H](C)CC)NC(=O)[C@H](Cc8c[nH]c9ccccc89)NC(=O)[C@H](CC(C)C)NC(=O)[C@H](CCCCN)NC(=O)[C@H](CSSC[C@H](NC(=O)[C@H]([C@@H](C)O)NC(=O)[C@H](Cc8c[nH]c9ccccc89)NC(=O)[C@H](CCCC)NC(=O)[C@H](Cc8c[nH]c9ccccc89)NC(=O)[C@H](CCCCN)NC(=O)[C@H](CCC(N)=O)NC5=O)C(=O)N[C@@H](CC(=O)O)C(=O)N[C@@H](CO)C(=O)N[C@@H](CCCCN)C(=O)N[C@@H](CCCNC(=N)N)C(=O)N[C@@H](C)C(=O)N7)NC(=O)[C@H](CCCNC(=N)N)NC(=O)[C@H](CC(C)C)NC(=O)CNC(=O)[C@H](CCC(=O)O)NC6=O)nn4)c3)nn2)CSSC[C@@H]2NC(=O)[C@@H]3CSSC[C@@H](C(=O)N[C@@H](CCCNC(=N)N)C(=O)N[C@@H](CCCCN)C(=O)N[C@@H](CCC(=O)O)C(=O)N[C@H](C(N)=O)[C@@H](C)CC)NC(=O)[C@H](Cc4c[nH]c5ccccc45)NC(=O)[C@H](CC(C)C)NC(=O)[C@H](CCCCN)NC(=O)[C@H](CSSC[C@H](NC(=O)[C@H]([C@@H](C)O)NC(=O)[C@H](Cc4c[nH]c5ccccc45)NC1=O)C(=O)N[C@@H](CC(=O)O)C(=O)N[C@@H](CO)C(=O)N[C@@H](CCCCN)C(=O)N[C@@H](CCCNC(=N)N)C(=O)N[C@@H](C)C(=O)N3)NC(=O)[C@H](CCCNC(=N)N)NC(=O)[C@H](CC(C)C)NC(=O)CNC(=O)[C@H](CCC(=O)O)NC2=O [Homodimeric Peptide No. 7] | No |  |  |  | 
CC[C@H](C)[C@H](NC(=O)[C@@H](NC(=O)[C@H](CCCCN)NC(=O)[C@H](CCC(=O)O)NC(=O)[C@@H]1CSSC[C@@H]2NC(=O)[C@H](C)NC(=O)[C@H](CCCNC(=N)N)NC(=O)[C@H](CCCCN)NC(=O)[C@H](CO)NC(=O)[C@H](CC(=O)O)NC(=O)[C@@H]3CSSC[C@H](NC(=O)[C@H](CCCNC(=N)N)NC(=O)[C@H](CC(C)C)NC(=O)CNC(=O)[C@H](CCC(=O)O)NC(=O)[C@H](CSSC[C@H](NC(=O)[C@@H](N)Cc4ccc(O)cc4)C(=O)N[C@@H](CCC(N)=O)C(=O)N[C@@H](CCCCN)C(=O)N[C@@H](Cc4c[nH]c5ccccc45)C(=O)N[C@@H](CCSC)C(=O)N[C@@H](Cc4c[nH]c5ccccc45)C(=O)N[C@@H]([C@@H](C)O)C(=O)N3)NC2=O)C(=O)N[C@@H](CCCCN)C(=O)N[C@@H](CC(C)C)C(=O)N[C@@H](Cc2c[nH]c3ccccc23)C(=O)N1)[C@@H](C)CC)C(N)=O [compound 67] |  |  | > 1000 nM |  | 
CC[C@H](C)[C@H](NC(=O)[C@H](Cc1ccc(O)cc1)NC(=O)[C@H](CCCCN)NC(=O)[C@H](CCCNC(=N)N)NC(=O)[C@@H]1CSSC[C@@H]2NC(=O)[C@H](C)NC(=O)[C@H](CCCNC(=N)N)NC(=O)[C@H](CCCCN)NC(=O)[C@H](CO)NC(=O)[C@H](CC(=O)O)NC(=O)[C@@H]3CSSC[C@H](NC(=O)[C@H](CCC(=O)O)NC(=O)[C@H](CC(C)C)NC(=O)CNC(=O)[C@H](CCC(=O)O)NC(=O)[C@H](CSSC[C@H](NC(=O)[C@@H](N)Cc4ccc(O)cc4)C(=O)N[C@@H](CCC(N)=O)C(=O)N[C@@H](CCCCN)C(=O)N[C@@H](Cc4ccccc4)C(=O)N[C@@H](CCSC)C(=O)N[C@@H](Cc4c[nH]c5ccccc45)C(=O)N[C@@H]([C@@H](C)O)C(=O)N3)NC2=O)C(=O)N[C@@H](CCCCN)C(=O)N[C@@H](CC(C)C)C(=O)N[C@@H](Cc2c[nH]c3ccccc23)C(=O)N1)C(N)=O [compound 193] |  |  |  | 217 | 217
CC[C@H](C)[C@H](NC(=O)[C@H](Cc1ccc(O)cc1)NC(=O)[C@H](CCCCN)NC(=O)[C@H](CCCNC(=N)N)NC(=O)[C@@H]1CSSC[C@@H]2NC(=O)[C@H](C)NC(=O)[C@H](CCCNC(=N)N)NC(=O)[C@H](CCCCN)NC(=O)[C@H](CO)NC(=O)[C@H](CC(=O)O)NC(=O)[C@@H]3CSSC[C@H](NC(=O)[C@H](CCC(=O)O)NC(=O)[C@H](CC(C)C)NC(=O)CNC(=O)[C@H](CCC(=O)O)NC(=O)[C@H](CSSC[C@H](NC(=O)[C@@H](N)Cc4ccc(O)cc4)C(=O)N[C@@H](CCC(N)=O)C(=O)N[C@@H](CCCCN)C(=O)N[C@@H](Cc4c[nH]c5ccccc45)C(=O)N[C@@H](CCSC)C(=O)N[C@@H](Cc4c[nH]c5ccccc45)C(=O)N[C@@H]([C@@H](C)O)C(=O)N3)NC2=O)C(=O)N[C@@H](CCCCN)C(=O)N[C@@H](CC(C)C)C(=O)N[C@@H](Cc2cccc3ccccc23)C(=O)N1)C(N)=O [compound 218] |  |  |  | 434 | 833
CSCC[C@@H]1NC(=O)[C@H](Cc2c[nH]c3ccccc23)NC(=O)[C@H](CCCCN)NC(=O)[C@H](CCC(N)=O)NC(=O)[C@@H](NC(=O)[C@@H](N)Cc2ccc(O)cc2)CSSC[C@@H]2NC(=O)[C@@H]3CSSC[C@@H](C(=O)N[C@@H](CCCNC(=N)N)C(=O)N[C@@H](CCCCN)C(=O)N[C@@H](Cc4ccc(O)cc4)C(=O)N[C@@H](Cc4ccc5ccccc5c4)C(N)=O)NC(=O)[C@H](Cc4c[nH]c5ccccc45)NC(=O)[C@H](CC(C)C)NC(=O)[C@H](CCCCN)NC(=O)[C@H](CSSC[C@H](NC(=O)[C@H]([C@@H](C)O)NC(=O)[C@H](Cc4c[nH]c5ccccc45)NC1=O)C(=O)N[C@@H](CC(=O)O)C(=O)N[C@@H](CO)C(=O)N[C@@H](CCCCN)C(=O)N[C@@H](CCCNC(=N)N)C(=O)N[C@@H](C)C(=O)N3)NC(=O)[C@H](CCC(=O)O)NC(=O)[C@H](CC(C)C)NC(=O)CNC(=O)[C@H](CCC(=O)O)NC2=O [compound 233] |  |  |  | 265 | 433
CSCC[C@@H]1NC(=O)[C@H](Cc2c[nH]c3ccccc23)NC(=O)[C@H](CCCCN)NC(=O)[C@H](CCC(N)=O)NC(=O)[C@@H](NC(=O)[C@@H](N)Cc2ccc(O)cc2)CSSC[C@@H]2NC(=O)[C@@H]3CSSC[C@@H](C(=O)N[C@@H](CCCNC(=N)N)C(=O)N[C@@H](CCCCN)C(=O)N[C@@H](Cc4ccc(O)cc4)C(=O)N[C@@H](CC(C)C)C(N)=O)NC(=O)[C@H](Cc4c[nH]c5ccccc45)NC(=O)[C@H](CC(C)C)NC(=O)[C@H](CCCCN)NC(=O)[C@H](CSSC[C@H](NC(=O)[C@H]([C@@H](C)O)NC(=O)[C@H](Cc4c[nH]c5ccccc45)NC1=O)C(=O)N[C@@H](CC(=O)O)C(=O)N[C@@H](CO)C(=O)N[C@@H](CCCCN)C(=O)N[C@@H](CCCNC(=N)N)C(=O)N[C@@H](C)C(=O)N3)NC(=O)[C@H](CCC(=O)O)NC(=O)[C@H](CC(C)C)NC(=O)CNC(=O)[C@H](CCC(=O)O)NC2=O [compound 238] |  |  |  | 241 | 2817
CCCC[C@H](NC(=O)[C@H](Cc1ccc(O)cc1)NC(=O)[C@H](CCCCN)NC(=O)[C@H](CCCNC(=N)N)NC(=O)[C@@H]1CSSC[C@@H]2NC(=O)[C@H](C)NC(=O)[C@H](CCCNC(=N)N)NC(=O)[C@H](CCCCN)NC(=O)[C@H](CO)NC(=O)[C@H](CC(=O)O)NC(=O)[C@@H]3CSSC[C@H](NC(=O)[C@H](CCC(=O)O)NC(=O)[C@H](CC(C)C)NC(=O)CNC(=O)[C@H](CCC(=O)O)NC(=O)[C@H](CSSC[C@H](NC(=O)[C@@H](N)Cc4ccc(O)cc4)C(=O)N[C@@H](CCC(N)=O)C(=O)N[C@@H](CCCCN)C(=O)N[C@@H](Cc4c[nH]c5ccccc45)C(=O)N[C@@H](CCSC)C(=O)N[C@@H](Cc4c[nH]c5ccccc45)C(=O)N[C@@H]([C@@H](C)O)C(=O)N3)NC2=O)C(=O)N[C@@H](CCCCN)C(=O)N[C@@H](CC(C)C)C(=O)N[C@@H](Cc2c[nH]c3ccccc23)C(=O)N1)C(N)=O [compound 239] |  |  |  | 127 | >1575
